System: female cockroach (periplaneta fuliginosa)
Experiment: Efficacy Test 1: Concentrate Dropping Test
Assay type: in vivo
Details: for Time until the subject insect stops moving (seconds) Average / Time until the subject insect stops moving (seconds) No. 1 / Time until the subject insect stops moving (seconds) No. 2 / Time until the subject insect stops moving (seconds) No. 3 / Time until the subject insect stops moving (seconds) No. 4 / Time until the subject insect stops moving (seconds) No. 5: 0.5 mL dropped between thorax and abdomen; for Time until the subject insect stops moving (seconds) Average: average of five tests; for Time until the subject insect stops moving (seconds) No. 1: repeat No. 1; for Time until the subject insect stops moving (seconds) No. 2: repeat No. 2; for Time until the subject insect stops moving (seconds) No. 3: repeat No. 3; for Time until the subject insect stops moving (seconds) No. 4: repeat No. 4; for Time until the subject insect stops moving (seconds) No. 5: repeat No. 5; for Lethality (%) after 24 hours: 0.5 mL dropped, 24 hours at 20° C., humidity 26%, five tests
Method: A plastic cup (capacity of 860 ml) that is open at the top was provided, and butter was spread on the upper part of the cup interior. Then, as a subject insect, one female cockroach (periplaneta fuliginosa) was gently placed on its back at the bottom of the plastic cup.
After confirming that the subject insect is lying on its back, 0.5 mL of the subject agent in Table 1 was dropped on to the insect between the thorax and the abdomen using a pipet, and the time (seconds) until the subject insect's movement completely stopped was measured.
Subsequently, the subject insect was transferred to another plastic cup and left in a room having a temperature of 20° C. and a humidity of 26%. The number of subject insects that died after 24 hours was counted. The test was repeated five times to obtain the lethality (%) based on the average of the results.

Row | SMILES | Time until the subject insect stops moving (seconds) Average [s] | Time until the subject insect stops moving (seconds) No. 1 [s] | Time until the subject insect stops moving (seconds) No. 2 [s] | Time until the subject insect stops moving (seconds) No. 3 [s] | Time until the subject insect stops moving (seconds) No. 4 [s] | Time until the subject insect stops moving (seconds) No. 5 [s] | Lethality (%) after 24 hours [%]
1 | FC(F)C(F)(F)C(F)(F)C(F)(F)C(F)(F)C(F)(F)F [Comparative Example 2, 1H-Tridecafluorohexane] | 56.4 | 54 | 50 | 53 | 62 | 63 | 40
2 | FC(F)(F)/C=C/Cl [Example 1, Trans-1-chloro-3,3,3-trifluoropropene] | 1.4 | 2 | 1 | 1 | 1 | 2 | 80

From patent US10306878B2, “Insect pest control agent” (priority 2013, dated 2019)
